Read-outs that look alike come from different tables or passages of the source.
Target: mutant BRAF V600E (Homo sapiens, UniProt P15056, V600E)
Experiment: BRAF V600E HiBiT Degradation Assay in A375.10 cells
Details: for HiBIT-Degradation A375.10 BRAF 2 hours IP nM / DC50 / HiBIT-Degradation A375.10 BRAF 24 hours IP nM: A375.10 cells; for HiBIT-Degradation A375.10 BRAF 2 hours IP nM / HiBIT-Degradation A375.10 BRAF 24 hours IP nM: inflection point of the dose-response curve
[1] = read-out: HIBIT-Degradation A375.10 BRAF 2 hours DC50 nM, 2 hours
[2] = read-out: HiBIT-Degradation A375.10 BRAF 2 hours Emax
[3] = read-out: HiBIT-Degradation A375.10 BRAF 24 hours DC50 nM, 24 hours
[4] = read-out: HiBIT-Degradation A375.10 BRAF 24 hours Emax

mutant BRAF V600E, sequence (P15056 whole entry V600E): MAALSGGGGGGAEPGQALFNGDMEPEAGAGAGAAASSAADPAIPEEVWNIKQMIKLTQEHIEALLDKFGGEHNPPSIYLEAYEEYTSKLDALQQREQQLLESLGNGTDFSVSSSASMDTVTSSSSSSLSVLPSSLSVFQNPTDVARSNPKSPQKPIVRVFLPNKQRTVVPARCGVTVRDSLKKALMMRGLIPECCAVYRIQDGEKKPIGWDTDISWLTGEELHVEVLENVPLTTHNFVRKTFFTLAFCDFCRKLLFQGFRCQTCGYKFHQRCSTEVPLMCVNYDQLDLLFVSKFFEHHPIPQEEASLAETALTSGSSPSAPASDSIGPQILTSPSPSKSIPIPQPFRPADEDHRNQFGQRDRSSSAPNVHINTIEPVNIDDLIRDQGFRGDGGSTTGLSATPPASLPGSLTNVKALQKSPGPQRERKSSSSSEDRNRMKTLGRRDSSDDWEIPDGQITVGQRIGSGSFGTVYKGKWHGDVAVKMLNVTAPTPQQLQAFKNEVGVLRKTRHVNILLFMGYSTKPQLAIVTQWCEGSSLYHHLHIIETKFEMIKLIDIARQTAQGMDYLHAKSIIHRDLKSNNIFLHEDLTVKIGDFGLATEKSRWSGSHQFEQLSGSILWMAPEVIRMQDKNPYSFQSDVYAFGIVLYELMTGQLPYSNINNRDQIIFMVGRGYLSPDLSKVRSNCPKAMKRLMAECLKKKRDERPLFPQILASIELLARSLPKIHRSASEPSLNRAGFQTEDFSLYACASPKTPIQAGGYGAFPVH

HiBIT-Degradation A375.10 BRAF 2 hours IP nM (2 hours)	DC50 [1]	Emax [2]	SMILES	HiBIT-Degradation A375.10 BRAF 24 hours IP nM (24 hours)	DC50 [3]	Emax [4]
*** (<= 1 μM is)	1000 to 10000 nM	< 60%	CCN(C)S(=O)(=O)Nc1ccc(F)c(Oc2ccc3ncn([C@H]4COC5(CCN(C(=O)CN6CCC(c7ccc(OC8CCC(=O)NC8=O)cc7OS(C)(=O)=O)CC6)CC5)C4)c(=O)c3c2)c1C#N (some centres unmarked) [drawing 1204]			
** (<10 μM and >1 μM is **)	1000 to 10000 nM	< 60%	CCN(C)S(=O)(=O)Nc1ccc(F)c(Oc2ccc3ncn([C@H]4COC5(CCN(C(=O)CN6CCC(c7ccc(N8CCC(=O)NC8=O)cc7OS(C)(=O)=O)CC6)CC5)C4)c(=O)c3c2)c1C#N [drawing 1205]			
** (<10 μM and >1 μM is **)	> 10000 nM	60 to 95%	CCN(C)S(=O)(=O)Nc1ccc(F)c(Oc2ccc3ncn([C@@H]4COC5(CCN(C(=O)CN6CCC(c7ccc(OC8CCC(=O)NC8=O)cc7OS(C)(=O)=O)CC6)CC5)C4)c(=O)c3c2)c1C#N (some centres unmarked) [drawing 1206]			
** (<10 μM and >1 μM is **)	> 10000 nM	< 60%	CCN(C)S(=O)(=O)Nc1ccc(F)c(Oc2ccc3ncn([C@@H]4COC5(CCN(C(=O)CN6CCC(c7ccc(C8CCC(=O)NC8=O)cc7OS(C)(=O)=O)CC6)CC5)C4)c(=O)c3c2)c1C#N (some centres unmarked) [drawing 1207]			
** (<10 μM and >1 μM is **)	> 10000 nM	60 to 95%	CCN(C)S(=O)(=O)Nc1ccc(F)c(Oc2ccc3ncn([C@@H]4COC5(CCN(C(=O)CN6CCC(c7ccc(NC8CCC(=O)NC8=O)cc7OS(C)(=O)=O)CC6)CC5)C4)c(=O)c3c2)c1C#N (some centres unmarked) [drawing 1208]			
			CCN(C)S(=O)(=O)Nc1ccc(F)c(Oc2ccc3ncn([C@@H]4COC5(CCN(C(=O)CN6CCC(c7ccc(C8CCC(=O)NC8=O)cc7OS(=O)(=O)F)CC6)CC5)C4)c(=O)c3c2)c1C#N (some centres unmarked) [drawing 1210]	*** (<= 1 μM is ***)	< 1000 nM	< 60%
			CCN(C)S(=O)(=O)Nc1ccc(F)c(Oc2ccc3ncn([C@H]4COC5(CCN(C(=O)CN6CCC(c7ccc(C8CCC(=O)NC8=O)cc7OS(=O)(=O)F)CC6)CC5)C4)c(=O)c3c2)c1C#N (some centres unmarked) [drawing 1211]	*** (<= 1 μM is ***)	< 1000 nM	< 60%
			CCN(C)S(=O)(=O)Nc1ccc(F)c(Oc2ccc3ncn([C@H]4COC5(CCN(C(=O)CN6CCN(c7ccc(C8CCC(=O)NC8=O)cc7OS(=O)(=O)F)CC6)CC5)C4)c(=O)c3c2)c1C#N (some centres unmarked) [drawing 1212]	*** (<= 1 μM is ***)	< 1000 nM	< 60%
			CCN(C)S(=O)(=O)Nc1ccc(F)c(Oc2ccc3ncn([C@H]4COC5(CCN(C(=O)CN6CCN(c7ccc(N8CCC(=O)NC8=O)cc7OS(=O)(=O)F)CC6)CC5)C4)c(=O)c3c2)c1C#N [drawing 1213]	*** (<= 1 μM is ***)	1000 to 10000 nM	< 60%
			CCN(C)S(=O)(=O)Nc1ccc(F)c(Oc2ccc3ncn([C@H]4COC5(CCN(C(=O)CN6CCC(c7ccc(OC8CCC(=O)NC8=O)cc7OS(=O)(=O)F)CC6)CC5)C4)c(=O)c3c2)c1C#N (some centres unmarked) [drawing 1214]	*** (<= 1 μM is ***)	< 1000 nM	< 60%
			CCN(C)S(=O)(=O)Nc1ccc(F)c(Oc2ccc3ncn([C@H]4COC5(CCN(C(=O)CN6CCC(c7ccc(NC8CCC(=O)NC8=O)cc7S(=O)(=O)F)CC6)CC5)C4)c(=O)c3c2)c1C#N (some centres unmarked) [drawing 1215]	*** (<= 1 μM is ***)	< 1000 nM	< 60%
			CCN(C)S(=O)(=O)Nc1ccc(F)c(Oc2ccc3ncn([C@H]4COC5(CCN(C(=O)CN6CCC(c7ccc(C8CCC(=O)NC8=O)cc7OS(=O)(=O)F)CC6)CC5)C4)c(=O)c3c2)c1C#N (some centres unmarked) [drawing 1216]	*** (<= 1 μM is ***)	< 1000 nM	
			CCN(C)S(=O)(=O)Nc1ccc(F)c(Oc2ccc3ncn([C@H]4COC5(CCN(C(=O)CN6CCC(c7ccc(NC8CCC(=O)NC8=O)cc7OS(C)(=O)=O)CC6)CC5)C4)c(=O)c3c2)c1C#N (some centres unmarked) [drawing 1217]	*** (<= 1 μM is ***)	< 1000 nM	< 60%
			CCN(C)S(=O)(=O)Nc1ccc(F)c(Oc2ccc3ncn([C@H]4COC5(CCN(C(=O)CN6CCC(c7ccc(N8CCC(=O)NC8=O)cc7OS(=O)(=O)F)CC6)CC5)C4)c(=O)c3c2)c1C#N [drawing 1218]	*** (<= 1 μM is ***)	> 10000 nM	60 to 95%
			CCN(C)S(=O)(=O)Nc1ccc(F)c(Oc2ccc3ncn([C@@H]4COC5(CCN(C(=O)CN6CCC(c7ccc(N8CCC(=O)NC8=O)cc7OS(C)(=O)=O)CC6)CC5)C4)c(=O)c3c2)c1C#N [drawing 1219]	*** (<= 1 μM is ***)	< 1000 nM	< 60%
			CCN(C)S(=O)(=O)Nc1ccc(F)c(Oc2ccc3ncn([C@H]4COC5(CCN(C(=O)CN6CCC(c7ccc(N8CCC(=O)NC8=O)cc7OS(C)(=O)=O)CC6)CC5)C4)c(=O)c3c2)c1C#N [drawing 1220]	*** (<= 1 μM is ***)	< 1000 nM	< 60%
			CCN(C)S(=O)(=O)Nc1ccc(F)c(Oc2ccc3ncn([C@@H]4COC5(CCN(C(=O)CN6CCC(c7ccc(OC8CCC(=O)NC8=O)cc7S(=O)(=O)F)CC6)CC5)C4)c(=O)c3c2)c1C#N (some centres unmarked) [drawing 1221]	*** (<= 1 μM is ***)	< 1000 nM	< 60%
			CCN(C)S(=O)(=O)Nc1ccc(F)c(Oc2ccc3ncn([C@@H]4COC5(CCN(C(=O)CN6CCC(c7ccc(NC8CCC(=O)NC8=O)cc7S(=O)(=O)F)CC6)CC5)C4)c(=O)c3c2)c1C#N (some centres unmarked) [drawing 1222]	*** (<= 1 μM is ***)	1000 to 10000 nM	< 60%
			CCN(C)S(=O)(=O)Nc1ccc(F)c(Oc2ccc3ncn([C@@H]4COC5(CCN(C(=O)CN6CCC(c7ccc(C8CCC(=O)NC8=O)cc7OS(C)(=O)=O)CC6)CC5)C4)c(=O)c3c2)c1C#N (some centres unmarked) [drawing 1223]	*** (<= 1 μM is ***)	< 1000 nM	< 60%
			CCN(C)S(=O)(=O)Nc1ccc(F)c(Oc2ccc3ncn([C@H]4COC5(CCN(C(=O)CN6CCC(c7ccc(OC8CCC(=O)NC8=O)cc7OS(C)(=O)=O)CC6)CC5)C4)c(=O)c3c2)c1C#N (some centres unmarked) [drawing 1224]	*** (<= 1 μM is ***)	1000 to 10000 nM	< 60%
			CCN(C)S(=O)(=O)Nc1ccc(F)c(Oc2ccc3ncn([C@H]4COC5(CCN(C(=O)CN6CCC(c7ccc(OC8CCC(=O)NC8=O)cc7S(=O)(=O)F)CC6)CC5)C4)c(=O)c3c2)c1C#N (some centres unmarked) [drawing 1225]	** (<10 μM and >1 μM is **)	> 10000 nM	60 to 95%
			CCN(C)S(=O)(=O)Nc1ccc(F)c(Oc2ccc3ncn([C@@H]4COC5(CCN(C(=O)CN6CCC(c7ccc(NC8CCC(=O)NC8=O)cc7OS(C)(=O)=O)CC6)CC5)C4)c(=O)c3c2)c1C#N (some centres unmarked) [drawing 1226]	** (<10 μM and >1 μM is **)	1000 to 10000 nM	< 60%

SMILES	HiBIT-Degradation A375.10 BRAF 2 hours IP nM (2 hours)	DC50 [1]	Emax [2]	HiBIT-Degradation A375.10 BRAF 24 hours IP nM (24 hours)	DC50 [3]	Emax [4]
CCN(C)S(=O)(=O)Nc1ccc(F)c(Oc2ccc3ncn([C@@H]4COC5(CCN(C(=O)CN6CCC(c7ccc(NC8CCC(=O)NC8=O)cc7S(=O)(=O)F)CC6)CC5)C4)c(=O)c3c2)c1C#N (some centres unmarked) [drawing 1209]	* (>=10 μM is *)	> 10000 nM	60 to 95%			
